Measured values as given in patent publication US20260000678A1, “PHARMACEUTICAL COMPOSITION FOR PREVENTING, SUPPRESSING, OR TREATING SYMPTOM ASSOCIATED WITH PSEUDO-ALLERGIC REACTION” (Takasaki University of Health and Welfare, priority 2022, published 2026).
“Also recorded” adds a separate entry of the source. Each block holds one molecule with its values, some of them ahead of it.

Assays:
PMCs = assay: Degranulation of PMCs (β-hexosaminidase release rate); assay type: cell-based, mouse; conditions: for Effect on IgE receptor stimulation or degranulation by C48/80: α,β-methyl mATP 10 uM, ADP 100 uM, UDP-Glucose 100 uM; for Degranulation of PMCs by the stimulant alone: 37° C. 10 minutes, DNP-HSA on IgE-sensitized PMCs, BzATP 10 uM
[1] = tested on: PMCs derived from P2X4 receptor-deficient mice; assay: Degranulation of PMCs derived from P2X4 receptor-deficient mice; assay type: cell-based, mouse; conditions: DNP-HSA or C48/80 stimulation with 100 uM ATP
Procedure: The abdominal cavity of wild-type C57BL/6 mice (7- to 8-week-old, male; n=4) or P2X4 receptor-deficient mice (7- to 8-week-old, male; n=4) was washed with 4 mL of RPMI1640 medium to prepare peritoneal cells. The cells were cultured in RPMI1640 medium containing 10% FBS, penicillin (100 unit/ml), streptomycin (100 μg/ml), recombinant mouse IL-3 (10 ng/ml, manufactured by PeproTech, Inc.), and 10 ng/mL of SCF (manufactured by PeproTech, Inc.) for 14 days to be used for the experiment. 95% or more of the prepared PMCs were double positive for c-KIT and FcεRI (FACSCant II, manufactured by BD Biosciences).
Anti-DNP-IgE antibody (clone: SPE-7, manufactured by Sigma-Aldrich, Inc.) was added to a culture solution containing PMCs derived from wild-type C57BL/6 mice or P2X4 receptor-deficient mice so that the concentration reached 50 ng/ml, and the PMCs were sensitized overnight. The PMCs were washed with PBS(−) and suspended in Krebs Ringer-HEPES Buffer containing 0.1% BSA (NaCl 130 mM, KCl 4.7 mM, NaHCO3 4.0 mM, KH2P4 1.2 mM, Glucose 11.5 mM, HEPES 10 mM, and CaCl2—H2O 1.8 mM) so that the concentration reached 1×10^6 cell/mL. […] 50 mM carbonate buffer (pH 10.0, 100 uL) was added to stop the enzyme reaction of β-hexosaminidase, and absorbance was measured at 405/655 nm using an absorbance microplate reader Sunrise (manufactured by Tecan Trading AG). […]

wild-type C57BL/6 mice = assay: Passive systemic anaphylaxis caused by C48/80 (rectal temperature); assay type: in vivo, mouse; conditions: 10 mg/kg intraperitoneally 15 minutes before C48/80 (50 μg i.v.); vs vehicle; listed as Compound B
Procedure: Wild-type C57BL/6 mice (9-week-old, male; n=8) and P2X4 receptor-deficient mice (10-week-old, male; n=7) were intravenously administered with 100 μL of physiological saline containing 50 μg of C48/80 (manufactured by Sigma-Aldrich, Inc.). Thereafter, the rectal temperatures of the mice were measured with a digital thermometer (manufactured by Physitemp Instruments, LLC.) every 5 minutes for a period of 60 minutes.
Compound B, a P2X4 receptor antagonist, was used after being dissolved in physiological saline at a concentration of 10 mg/ml. In a passive systemic anaphylaxis test using the wild-type C57BL/6 mice of Example 1-1), 10 mg/kg of Compound B or a solvent thereof (vehicle) was intraperitoneally administered 15 minutes before administration of C48/80. […] From this, it was considered that the symptom of the pseudo-allergy can be reduced by the P2X4 receptor antagonist.

[2] = dose dependency, DNP-HSA 0, 1, 5, or 10 μg/mL
[3] = wild-type PMCs, C48/80 10 uM, Substance P 100 uM, PAMP-12 10 uM, vancomycin 1 mM

Effect on IgE receptor stimulation or degranulation by C48/80 (PMCs): did not affect
Molecule: Nc1ncnc2c1ncn2[C@@H]1O[C@H](COP(=O)(O)OP(=O)(O)O)[C@@H](O)[C@H]1O [ADP]

Effect of ATP on degranulation of PMCs by MrgprB2 stimulation with C48/80 (PMCs; 100 uM ATP, C48/80 10 uM, wild-type PMCs): significantly promoted
Effect of ATP on degranulation of PMCs by Substance P, PAMP-12 and vancomycin (PMCs; Substance P 100 uM, PAMP-12 10 uM, vancomycin 1 mM): promoted; also recorded: enhanced
Effect of ATP on degranulation by IgE receptor stimulation, DNP-HSA at a high concentration (PMCs; [2]): not observed
Effect of ATP on degranulation by IgE receptor stimulation, DNP-HSA at a low concentration (PMCs; [2]): promoted degranulation
Effect of promoting degranulation of ATP in P2X4 receptor-deficient PMCs [1]: not observed
Molecule: Nc1ncnc2c1ncn2[C@@H]1O[C@H](COP(=O)(O)OP(=O)(O)OP(=O)(O)O)[C@@H](O)[C@H]1O [ATP]
Effect of ATP on degranulation of PMCs by IgE receptor stimulation (DNP-HSA) (PMCs; 100 uM ATP, IgE (SPE-7)-sensitized wild-type PMCs): significantly promoted
Effect of ATP on dose dependency of degranulation by MrgprB2 stimulation with C48/80 (PMCs; C48/80 0, 1, 10, or 100 uM): enhanced the maximum response; also recorded: significantly increased the degree of degranulation

Molecule: O=C1CC(=O)N(c2ccc(NC(=O)c3ccccc3I)cc2)c2ccc3ccccc3c2N1 [Compound B48, 5-[4-(2-iodobenzoylamino)phenyl]-1H-naphtho[1,2-b][1,4]diazepine-2,4(3H,5H)-dione]
Suppression of the promotion of degranulation of PMCs by ATP (PMCs; Compound at 10 uM before the degranulation reaction, C48/80 10 uM with or without 100 uM ATP, vs vehicle, listed as Compound B): significantly suppressed
Suppression of the decrease in rectal temperature by C48/80 (wild-type C57BL/6 mice): significantly suppressed

Molecule: CN[C@H](CC(C)C)C(=O)N[C@H]1C(=O)N[C@@H](CC(N)=O)C(=O)N[C@H]2C(=O)N[C@H]3C(=O)N[C@H](C(=O)N[C@H](C(=O)O)c4cc(O)cc(O)c4-c4cc3ccc4O)[C@H](O)c3ccc(c(Cl)c3)Oc3cc2cc(c3O[C@@H]2O[C@H](CO)[C@@H](O)[C@H](O)[C@H]2O[C@H]2C[C@](C)(N)[C@H](O)[C@H](C)O2)Oc2ccc(cc2Cl)[C@H]1O [vancomycin]
Degranulation of PMCs by the stimulant alone (PMCs; [3]): induced

Effect on IgE receptor stimulation or degranulation by C48/80 (PMCs): did not affect
Molecule: Nc1ncnc2c1ncn2[C@@H]1O[C@H](COP(=O)(O)CP(=O)(O)OP(=O)(O)O)[C@@H](O)[C@H]1O [α,β-methyl mATP]

Molecule: BzATP
Degranulation of PMCs by the stimulant alone (PMCs; [3]): induced degranulation

Molecule: Proadrenomedullin N-terminal 20 peptide [PAMP-12]
Degranulation of PMCs by the stimulant alone (PMCs; [3]): induced

Molecule: Substance P
Degranulation of PMCs by the stimulant alone (PMCs; [3]): induced
